Publication PMC4105339 (Antiviral research, 2014)
Marks after values point to notes of the source that are not given here.

How the values were obtained:
[1] = test system: B/Perth/211/01 D197E mutant neuraminidase
[2] = target: B/Perth/211/01 D197E mutant neuraminidase; conditions: cited from earlier work
H3N2 E119V neuraminidase = conditions: cited from earlier work
[3] = test system: A/Mississippi/03/01 H1N1 H274Y mutant neuraminidase
[4] = test system: A/Fukui/45/04 H3N2 E119V mutant neuraminidase

| SMILES | Time (T½) for reaction rates to reach half the maximum rate of the uninhibited control [1] | IC50 [2] [nM] | changes in IC50 from 10 to 60 min in the preincubation reaction (H3N2 E119V neuraminidase) [fold] | Time (T½) for reaction rates to reach half the maximum rate of the uninhibited control [3] [min] | Time (T½) for reaction rates to reach half the maximum rate of the uninhibited control [4] [min] |
| --- | --- | --- | --- | --- | --- |
| CC(=O)N[C@H]1[C@H]([C@H](O)[C@H](O)CO)OC(C(=O)O)=C[C@@H]1N=C(N)N [Zanamivir] | 17.0^* min | 258 | 1.9 | 43.2 |  |
| CCC(CC)[C@H](NC(C)=O)[C@@H]1[C@H](O)[C@@H](C(=O)O)C[C@H]1N=C(N)N [Peramivir, peramivir] | 18.8 min | 41.5 |  |  | >240 |
